Measurements taken from patent US20170112760A1, “CELL DELIVERY SYSTEM AND METHOD” (The Queen's University of Belfast, priority 2014, published 2017).
Like-named read-outs stand apart in the source and are kept apart here. Ends that are not written are not given here.

Experiments:
[1] = system: ZR-75-1 cells; test: Transfection with peptide/pEGFP-N1 nanoparticles, GFP expression by flow cytometry; format: cell-based; details: for Transfection Efficiency in ZR-75-1 Cells: peptide/DNA nanoparticles, N:P10
Experimental: In order to test the RALA in vitro, small scale transfections were performed carried out. 5×10^4 cells were seeded onto each well of a 96 well plate and the cells incubated under with complete medium standard conditions for 48 hours. The medium was subsequently removed from the plates and 100 μl of transfection medium (Optimem Invitrogen, UK) was added to each well. Cells were incubated for 2 hours at 37° C. and 5% CO2 standard conditions. In the meanwhile complexes were made up using 1 μg of plasmid DNA with the RALA vector and added to the cells when the two hours had passed. 100 μl of the each N:P ratio were added to each well of the cells. Cells were then incubated for a further 4 hours under standard conditions and the medium with RPMI-1640 supplemented with +10% FCS. (FIG. 4, 31(+Chloroquine), 32 (+Bafilomycin), 33 (+KALA NPs), 34 (+Lipofectamine), 35).
ZR-75-1 & PC-3 cells that were transfected with RALA/pEGFP-N1 complexes were trypsinised and washed twice with 2% formaldehyde in phosphate buffered saline. The expression of green fluorescent protein was measured by flow cytometry using FACS calibur system (BD Bioscience, UK). The data was analysed using the Flo-Jo software program and fluorescent intensity is reported at 4% gating. (FIG. 7b, 11, 31, 32, 33, 34, 35, 57 (+RAT/pEGFP-N1)).

[2] = Nanoparticle size and charge analysis (DLS, zeta potential, Malvern Zetasizer); format: physicochemical; details: peptide/DNA nanoparticles, N:P10
Experimental: In order to obtain particle size and charge distributions the mean hydrodynamic particle size measurements RALA complexes were performed using Dynamic Light Scattering (DLS). Dynamic Light Scattering is based upon the principle that when particles are illuminated with a laser, due to Brownian motion there will be scattering of the light. The intensity of the scattered light fluctuates as a result of this Brownian motion caused by bombardment of the particles by solvent molecules. A correlation curve reflecting the decay rate is generated based on fluctuations of the scattered light where a slower correlation decay rate represents a slower moving particle. Based on the Stokes-Einstein equation larger particles move more slowly and, thus, the correlation function can be used to determine the size distribution of the particles. dynamic light scattering (DLS) was used.
Surface charge measurements of the RALA nanoparticles were determined by Laser Doppler Velocimetry. The zeta potential of the particles was measured using disposable foltable zeta cuvettes. Zeta cuvettes for the measurement of zeta potential were first washed with 70% ethanol, followed by two rinses with double distilled H2O prior to loading the sample. Enough diluted sample used for size measurement was used for determination of zeta potential.
The nanoparticles were made up at an appropriate range of N:P ratios with at least using 2 μg of DNA in each sample. Nanoparticles were analysed using either and analysis was completed on either the Zetasizer-HS3000 (Malvern Instruments) or the Zetasizer-Nano instrument with DTS software (Malvern Instruments, UK). Zetasizer-Nano (Malvern Instruments) (FIGS. 3, 9, 17-21, 41, 48 & 55).

[3] = system: PC-3 prostate cancer cells; test: Cell proliferation assay (manual cell counts), bisphosphonates and RALA/BP nanoparticles; details: for maximum cell kill: FIG. 51
Experimental: FIG. 51: Cell viability was evaluated by manual counting of the viable adherent cells using a haemocytometer. PC-3 prostate cancer cells were seeded in a 96-well flat-bottom tissue culture plate at a density of 1×10^4 cells per well and incubated in complete culture medium for 24 h. Two hours prior to transfection the cells were conditioned in OptiMEM serum-free medium and subsequently treated with solutions of BP to achieve a final exposure concentration of 5 μM to 1 mM. RALA/BP nanoparticles were prepared using a mass ratio of 10:1 such that the final concentration of BP per well was in the range 5 μM to 75 μM. Cells were incubated at 37° C. with 5% CO2 for 6 h before medium was replaced with completed culture medium and left to incubate for 72 h. Following incubation the cells were trypsinised and counted. Cell viability was expressed as a percentage of the untreated control where the untreated control is considered to be 100% viable. Dose-response curves were obtained for free BP and RALA/BP allowing determination of EC50 values for each. EC50 values refer to the concentration that induces a response halfway between the baseline and the maximum plateau obtained.
Cell viability was evaluated by manual counting of the viable adherent cells using a haemocytometer as described in. PC-3 prostate cancer cells were seeded in a 96-well flat-bottom tissue culture plate at a density of 1×10^4 cells per well and incubated in complete culture medium for 24 h. Two hours prior to transfection the cells were conditioned in OptiMEM serum-free medium (Invitrogen, UK) optimised for transfection. Cells were treated with solutions of BP to achieve a final exposure concentration of 5 μM to 1 mM. RALA/BP nanoparticles were prepared using a mass ratio of 10:1 such that the final concentration of BP per well was in the range 5 μM to 75 μM. Cells were incubated at 37° C. with 5% CO2 for 6 h before medium was replaced with completed culture medium and left to incubate for 72 h. Following incubation the cells were trypsinised and counted. Cell viability was expressed as a percentage of the untreated control where the untreated control is considered to be 100% viable. Dose-response curves were obtained for free BP and RALA/BP allowing determination of EC50 values for each. EC50 values refer to the concentration that induces a response halfway between the baseline and the maximum plateau obtained (FIG. 46, 51).

[4] = system: PC-3 prostate cancer cell xenograft; test: PC-3 xenograft model, intratumoural RALA/alendronate; format: in vivo, BALB-C SCID mice; details: thrice weekly
[5] = Immune response on repeated intravenous administration (ELISAs, Greiss test); format: in vivo, C57/BL6 mice; details: first week
Experimental: FIG. 8: Immune response of C57BL/6 mice injected with PBS only, PEI only, RALA only, DNA only, PEI/DNA or RALA/DNA nanoparticles. For each injection the equivalent to N:P 10 with 10 μg of DNA was injected. Mice received one injection per week for three weeks. 48 h after each injection three mice were sacrificed and the serum was extracted for analysis. a) IgG, b) IgM, c) IL-1β, d) IL-6 and e) Greiss test for total nitrites.
For the harvesting of blood and intraperitoneal macrophages, cervical dislocation was the preferred method of euthanasia. Cardiac puncture was performed using a 21 G gauge needle (BD Biosciences, UK). The needle was placed horizontally slightly to the left side of the sternum to go up through the diaphragm. The needle was then withdrawn very slowly until 500 μl of blood was collected and placed in an eppendorf. The eppendorf was then stored at room temperature with an open lid to facilitate coagulation. After 30 min the eppendorfs were centrifuged at 2000 rpm for 10 min. The supernatant containing the serum was carefully decanted and placed into a clean eppendorf and stored at −20° C. until further use. When harvesting intraperitoneal macrophages an incision was made and the peritoneal cavity was flushed out with 30% sucrose (Sigma, UK) solution. The macrophages were stored at 4° C. until they could be cultured (FIG. 8). […]

WEARLARALARALARELARALARALRACEA (amphipathic peptide sequence (Table 2)) [Peptide 3, H replaced with glutamic acid (E)]
Transfection Efficiency in ZR-75-1 Cells [1]: 41%
Charge (mV) [2]: 24 mV

REARLARALARALARLARALARALRAREA (amphipathic peptide sequence (Table 2)) [Peptide 5, H Removed and W replaced with R and C replaced with R]
Transfection Efficiency in ZR-75-1 Cells [1]: 46%
Charge (mV) [2]: 13 mV

O=P(O)(O)C(O)(Cn1ccnc1)P(=O)(O)O [zoledronate]
EC50 [3]: 27.6 µM
maximum cell kill [3]: 82%

CC(O)(P(=O)(O)O)P(=O)(O)O [etidronate]
percentage cell survival with increasing BP ([3]; FIG. 51d): no reduction in percentage cell survival with increasing BP

WEARLARALARALARHLRACEA (22mer protein sequence (Table 2)) [Peptide 22mer, comparative peptide, reference compound]
ability to condense DNA into nanoparticles and transfect cells [1]: unable to condense DNA into nanoparticles and transfect cells

WEARLARALARALARLARALARALRACEA (amphipathic peptide sequence (Table 2)) [Peptide 2, H removed]
Transfection Efficiency in ZR-75-1 Cells [1]: 55%
Charge (mV) [2]: 22 mV

NCCCC(O)(P(=O)(O)O)P(=O)(O)O [alendronate]
EC50 ([3]; FIG. 16: 10 μM to 250 μM, six hours, 72 hours recovery): 97.9 µM
EC50 ([3]; FIG. 51: 6 h treatment, 72 h incubation, mass ratio 10:1): 100 µM
effect on tumour growth vs untreated control [4]: high statistical significance when compared to the untreated control

O=P(O)(O)C(O)(Cc1cccnc1)P(=O)(O)O [risedronate]
EC50 [3]: 78 µM
maximum cell kill [3]: 20%

WEARLARALARALARHLARALARALRACEA [RALA]
TNFα response [5]: significantly lower initial response of TNFα than the PEI only treated animals

REARLARALARALARLARALARALRACEA (amphipathic peptide sequence (Table 2)) [Peptide 4, H Removed and W replaced with R]
Transfection Efficiency in ZR-75-1 Cells [1]: 50%
Charge (mV) [2]: 12 mV

REARLARALARALARELARALARALRAREA (amphipathic peptide sequence (Table 2)) [Peptide 6, H Replaced with E and W replaced with R and C replaced with R]
Transfection Efficiency in ZR-75-1 Cells [1]: 43%
Best Size (nm) [2]: 308 nm
Charge (mV) [2]: 6 mV
